Measurements: PMC9694777, “Fractionation and Extraction Optimization of Potentially Valuable Compounds and Their Profiling in Six Varieties of Two Nicotiana Species” (Molecules, 2022)
In brackets after ≈: the same amount, converted by molar mass.

Test: physchem
Source text: Determination of the small molecule content in a complex plant matrix depends on the understanding of minimum solubility in the chosen extraction solvent. […] Often, tests on mixture are hardly reproducible on pure compounds if this aspect is not routinely considered in the workflow. We performed a general testing of best solvent systems to compare a wide range of small molecules of interest to understand the limitations of general approaches within a complex plant matrix such as Nicotiana.
For each of the 29 reference compounds, 2 mg was weighed into a 15 mL glass tube and dissolved in the minimum amount of the test solvent by gradually adding the solvent with a micropipette until complete dissolution or to a final volume of 10.0 mL. Seven solvents with polarities from nonpolar to polar were chosen for the test: hexane (C6H14), CH2Cl2, CH2Cl2/MeOH (4:1, v/v), EtOH, MeOH, MeOH/H2O (7:3, v/v), and H2O. The consumed solvents and their volumes were recorded for each reference compound.

[1] = 22 °C, organic solvent or mixture, thermodynamic from solid, Solubility in C6H14
[2] = 22 °C, organic solvent or mixture, thermodynamic from solid, Solubility in C6H14, solvent hexane (C6H14); room temperature (21–23 °C); 2 mg compound, solvent added until dissolution or 10.0 mL
[3] = 22 °C, organic solvent or mixture, thermodynamic from solid, Solubility in CH2Cl2, solvent dichloromethane (CH2Cl2); room temperature (21–23 °C)
[4] = 22 °C, organic solvent or mixture, thermodynamic from solid, Solubility in CH2Cl2/MeOH (4:1), solvent CH2Cl2/MeOH (4:1, v/v); room temperature (21–23 °C)
[5] = 22 °C, organic solvent or mixture, thermodynamic from solid, Solubility in EtOH, solvent ethanol; room temperature (21–23 °C)
[6] = 22 °C, organic solvent or mixture, thermodynamic from solid, Solubility in MeOH, solvent methanol; room temperature (21–23 °C)
[7] = 22 °C, organic solvent or mixture, thermodynamic from solid, Solubility in MeOH/H2O (7:3), solvent MeOH/H2O (7:3, v/v); room temperature (21–23 °C)
[8] = 22 °C, water, thermodynamic from solid, Solubility in H2O, solvent water; room temperature (21–23 °C)
[9] = solvent MeOH/H2O (7:3, v/v); room temperature (21–23 °C)
[10] = solvent ethanol; room temperature (21–23 °C)
[11] = solvent methanol; room temperature (21–23 °C)
[12] = solvent water; room temperature (21–23 °C)
[13] = CH2Cl2/MeOH (4:1, v/v), 22 °C, organic solvent or mixture, thermodynamic from solid, Solubility in CH2Cl2/MeOH (4:1), solvent CH2Cl2/MeOH (4:1, v/v); room temperature (21–23 °C)
[14] = MeOH/H2O (7:3, v/v), 22 °C, organic solvent or mixture, thermodynamic from solid, Solubility in MeOH/H2O (7:3), solvent MeOH/H2O (7:3, v/v); room temperature (21–23 °C)
[15] = dichloromethane (CH2Cl2), 22 °C, organic solvent or mixture, thermodynamic from solid, Solubility in CH2Cl2, solvent dichloromethane (CH2Cl2); room temperature (21–23 °C)
[16] = ethanol, 22 °C, organic solvent or mixture, thermodynamic from solid, Solubility in EtOH, solvent ethanol; room temperature (21–23 °C)
[17] = methanol, 22 °C, organic solvent or mixture, thermodynamic from solid, Solubility in MeOH, solvent methanol; room temperature (21–23 °C)
[18] = water, 22 °C, thermodynamic from solid, Solubility in H2O, solvent water; room temperature (21–23 °C)
[19] = hexane (C6H14), 22 °C, organic solvent or mixture, thermodynamic from solid, Solubility in C6H14, solvent hexane (C6H14); room temperature (21–23 °C); 2 mg compound, solvent added until dissolution or 10.0 mL
[20] = solvent CH2Cl2/MeOH (4:1, v/v); room temperature (21–23 °C)

c1cncc([C@@H]2CCCCN2)c1 [Anabasine]
Solubility in CH2Cl2/MeOH (4:1): 70.0 mg/mL (≈ 431 mM) | solubility [1]: < 0.19 mg/mL | solubility (22 °C, organic solvent or mixture, thermodynamic from solid, Solubility in CH2Cl2): 10.3 mg/mL (≈ 63.5 mM) | solubility (22 °C, organic solvent or mixture, thermodynamic from solid, Solubility in CH2Cl2/MeOH (4:1)): < 100 mg/mL | solubility (22 °C, organic solvent or mixture, thermodynamic from solid, Solubility in EtOH): 97 mg/mL (≈ 598 mM) | solubility (22 °C, organic solvent or mixture, thermodynamic from solid, Solubility in MeOH): 103 mg/mL (≈ 635 mM) | solubility (22 °C, organic solvent or mixture, thermodynamic from solid, Solubility in MeOH/H2O (7:3)): 109 mg/mL (≈ 672 mM) | solubility (22 °C, water, thermodynamic from solid, Solubility in H2O): < 0.19 mg/mL

C1=CCC(c2cccnc2)NC1 (centres unmarked) [Anatabine]
solubility [2]: 217 mg/mL (≈ 1350 mM) | solubility [3]: 442 mg/mL (≈ 2760 mM) | solubility [4]: 512 mg/mL (≈ 3200 mM) | solubility [5]: 490 mg/mL (≈ 3060 mM) | solubility [6]: 444 mg/mL (≈ 2770 mM) | solubility [7]: 193 mg/mL (≈ 1200 mM) | solubility [8]: 100 mg/mL (≈ 624 mM)

C=C1CC/C=C(/C)CC[C@@H]2[C@@H]1CC2(C)C [Caryophyllene]
Solubility in MeOH/H2O (7:3) [9]: NS (not soluble, insoluble in the solvent at the tested concentration range (0.19–558 mg/mL)) | Solubility in EtOH [10]: 196 mg/mL (≈ 959 mM) | Solubility in MeOH [11]: 36.2 mg/mL (≈ 177 mM) | Solubility in H2O [12]: NS (not soluble, insoluble in the solvent at the tested concentration range (0.19–558 mg/mL))

CN1C(=O)CC[C@H]1c1cccnc1 [Cotinine]
solubility [1]: < 0.19 mg/mL | solubility [13]: 208 mg/mL (≈ 1180 mM) | solubility [14]: 139 mg/mL (≈ 789 mM) | solubility [15]: 203 mg/mL (≈ 1150 mM) | solubility [16]: 190 mg/mL (≈ 1080 mM) | solubility [17]: 235 mg/mL (≈ 1330 mM) | solubility [18]: 145 mg/mL (≈ 823 mM)

CC(C)=CCC/C(C)=C/CC/C(C)=C/CO [Farnesol]
solubility [13]: 348 mg/mL (≈ 1560 mM) | solubility [14]: 0.75 mg/mL (≈ 3.37 mM) | solubility [15]: 382 mg/mL (≈ 1720 mM) | solubility [16]: 376 mg/mL (≈ 1690 mM) | solubility [19]: 400 mg/mL (≈ 1800 mM) | solubility [17]: 466 mg/mL (≈ 2100 mM) | solubility [18]: < 0.19 mg/mL

C=CC(C)(O)CCC=C(C)C (centres unmarked) [Linalool]
solubility [13]: 462 mg/mL (≈ 3000 mM) | solubility [14]: 77.3 mg/mL (≈ 501 mM) | solubility [15]: 440 mg/mL (≈ 2850 mM) | solubility [16]: 454 mg/mL (≈ 2940 mM) | solubility [19]: 422 mg/mL (≈ 2740 mM) | solubility [17]: 462 mg/mL (≈ 3000 mM) | solubility [18]: 0.57 mg/mL (≈ 3.7 mM)

CCCCC/C=C\C/C=C\CCCCCCCC(=O)O [Linoleic acid]
solubility [2]: 374 mg/mL (≈ 1330 mM) | solubility [3]: 504 mg/mL (≈ 1800 mM) | solubility [4]: 502 mg/mL (≈ 1790 mM) | solubility [5]: 558 mg/mL (≈ 1990 mM) | solubility [6]: 526 mg/mL (≈ 1880 mM) | solubility [7]: < 0.19 mg/mL | solubility [8]: < 0.19 mg/mL

CC1=C[C@H](O)CC(C)(C)[C@H]1/C=C/C(C)=C/C=C/C(C)=C/C=C/C=C(C)/C=C/C=C(C)/C=C/C1=C(C)C[C@@H](O)CC1(C)C [Lutein]
solubility [2]: < 0.19 mg/mL | solubility [3]: < 0.19 mg/mL | solubility [5]: < 0.19 mg/mL | solubility [6]: < 0.19 mg/mL | solubility [7]: < 0.19 mg/mL | solubility [8]: < 0.19 mg/mL | Solubility in CH2Cl2/MeOH (4:1) [20]: 4.66 mg/mL (≈ 8.19 mM) | Solubility in CH2Cl2/MeOH (4:1) (solvent CH2Cl2/MeOH (4:1, v/v); room temperature (21–23 °C); listed as lutein): < 100 mg/mL

c1cncc(C2=NCCC2)c1 [Myosmine]
solubility [2]: 4.27 mg/mL (≈ 29.2 mM) | solubility [3]: 194 mg/mL (≈ 1330 mM) | solubility [4]: 175 mg/mL (≈ 1200 mM) | solubility [5]: 418 mg/mL (≈ 2860 mM) | solubility [6]: 356 mg/mL (≈ 2440 mM) | solubility [7]: 231 mg/mL (≈ 1580 mM) | solubility [8]: 180 mg/mL (≈ 1230 mM)

C=CC(=C)CCCC(C)CCCC(C)CCCC(C)C (centres unmarked) [Neophytadiene]
Solubility in MeOH/H2O (7:3) [9]: NS (not soluble, insoluble in the solvent at the tested concentration range (0.19–558 mg/mL)) | Solubility in EtOH [10]: 57.5 mg/mL (≈ 206 mM) | Solubility in MeOH [11]: 4.08 mg/mL (≈ 14.6 mM) | Solubility in H2O [12]: NS (not soluble, insoluble in the solvent at the tested concentration range (0.19–558 mg/mL))

NC(=O)c1cccnc1 [Nicotinamide]
solubility [3]: < 0.19 mg/mL | solubility [5]: 20.8 mg/mL (≈ 170 mM) | solubility [7]: 114 mg/mL (≈ 933 mM) | solubility [19]: < 0.19 mg/mL | solubility [17]: 66.3 mg/mL (≈ 543 mM) | Solubility in CH2Cl2/MeOH (4:1) [20]: 37.3 mg/mL (≈ 305 mM) | Solubility in CH2Cl2/MeOH (4:1) (solvent CH2Cl2/MeOH (4:1, v/v); room temperature (21–23 °C); listed as nicotinamide): < 100 mg/mL | solubility [18]: 150 mg/mL (≈ 1230 mM)
